Assay results published in patent US9115143B2, “Substituted indole derivatives as gamma secretase modulators” (Janssen Pharmaceuticals, Inc., priority 2011, dated 2015).

Key:
[1] = system: Aβ42; experiment: Screening for γ-secretase-modulating activity: Aβ42 in supernatant of SKNBE2 cells carrying hAPP 695 wild type (Alphalisa); type: cell-based, human; conditions: overnight incubation, Alphalisa on supernatant
Method: (§1) Pharmacology A) Screening of the Compounds of the Invention for γ-Secretase-Modulating Activity
(§2) Screening was carried out using SKNBE2 human neuroblastoma cells carrying the hAPP 695—wild type, grown in Dulbecco's Modified Eagle's Medium/Nutrient mixture F-12 (DMEM/NUT-mix F-12) (HAM) provided by Invitrogen (cat no. 10371-029) containing 5% Serum/Fe supplemented with 1% non-essential amino acids, 1-glutamine 2 mM, Hepes 15 mM, penicillin 50 U/mL (units/mL) en streptomycin 50 μg/mL. Cells were grown to near confluency.
(§3) The screening was performed using a modification of the assay as described in Citron et al (1997) Nature Medicine 3: 67. Briefly, cells were plated in a 384-well plate at 10^4 cells/well in Ultraculture (Lonza, BE12-725F) supplemented with 1% glutamine (Invitrogen, 25030-024), 1% non-essential amino acid (NEAA), penicillin 50 U/mL en streptomycin 50 μg/mL in the presence of test compound at different test concentrations. The cell/compound mixture was incubated overnight at 37° C., 5% CO2. The next day the media were assayed by two sandwich immuno-assays, for Aβ42 and Aβtotal.
(§4) Aβtotal and Aβ42 concentrations were quantified in the cell supernatant using the Aphalisa technology (Perkin Elmer). Alphalisa is a sandwich assay using biotinylated antibody attached to streptavidin coated donorbeads and antibody conjugated to acceptor beads. In the presence of antigen, the beads come into close proximity. The excitation of the donor beads provokes the release of singlet oxygen molecules that trigger a cascade of energy transfer in the acceptor beads, resulting in light emission. To quantify the amount of Aβ42 in the cell supernatant, monoclonal antibody specific to the C-terminus of Aβ42 (JRF/cAβ42/26) was coupled to the receptor beads and biotinylated antibody specific to the N-terminus of Aβ (JRF/AβN/25) was used to react with the donor beads. To quantify the amount of Aβ total in the cell supernatant, monoclonal antibody specific to the N-terminus of Aβ (JRF/AβN/25) was coupled to the receptor beads and biotinylated antibody specific to the mid region of Aβ (biotinylated 4G8) was used to react with the donor beads.
(§5) To obtain the values reported in Table 3, the data are calculated as percentage of the maximum amount of amyloid Beta 42 measured in the absence of the test compound. The sigmoidal dose response curves were analyzed using nonlinear regression analysis with percentage of the control plotted against the log concentration of the compound. A 4-parameter equation was used to determine the IC50.

[2] = system: Aβtotal; experiment: Screening for γ-secretase-modulating activity: Aβtotal in supernatant of SKNBE2 cells carrying hAPP 695 wild type (Alphalisa); type: cell-based, human; conditions: overnight incubation, Alphalisa on supernatant
Method: as §1, §2, §3, §4, §5

[3] = SKNBE2 human neuroblastoma cells carrying hAPP 695 wild type
[4] = Homo sapiens, SKNBE2, SKNBE2 human neuroblastoma cells carrying hAPP 695 wild type

SMILES | IC50 [1, 3] | IC50 [2, 3] | IC50 [1, 4] | IC50 [2, 4]
Cc1cn(-c2ccc3[nH]c(-c4nc5n(n4)CCCC5c4ccc(F)cc4C)cc3n2)cn1 (centres unmarked) [Compound 66, 8-(4-fluoro-2-methylphenyl)-5,6,7,8-tetrahydro-2-[5-(4-methyl-1H-imidazol-1-yl)-1H-pyrrolo[3,2-b]pyridin-2-yl]-[1,2,4]triazolo[1,5-a]pyridine] | 447 nM | > 10 µM |  | 
Cc1cc(F)ccc1C1CCCn2nc(-c3cc4cc(C#N)ncc4[nH]3)nc21 (centres unmarked) [Compound 68, 2-[8-(4-fluoro-2-methylphenyl)-5,6,7,8-tetrahydro[1,2,4]triazolo[1,5-a]pyridin-2-yl]-1H-pyrrolo[2,3-c]pyridine-5-carbonitrile] |  |  | 316 nM | > 10 µM
Cc1cc(F)ccc1C1CCCn2nc(-c3cc4nc(-c5cnn(C)c5)ccc4[nH]3)nc21 (centres unmarked) [Compound 70, 8-(4-fluoro-2-methylphenyl)-5,6,7,8-tetrahydro-2-[5-(1-methyl-1H-pyrazol-4-yl)-1H-pyrrolo[3,2-b]pyridin-2-yl]-[1,2,4]triazolo[1,5-a]pyridine] | 1000 nM | > 10 µM |  | 
Cc1cc(F)ccc1C1CCCn2cc(-c3cc4nc(C#N)ccc4[nH]3)nc21 (centres unmarked) [Compound 75, 2-[8-(4-fluoro-2-methylphenyl)-5,6,7,8-tetrahydroimidazo[1,2-a]pyridin-2-yl]-1H-pyrrolo[3,2-b]pyridine-5-carbonitrile] |  |  | 174 nM | > 10 µM
Cc1cc(F)ccc1C1CCCn2cc(-c3cc4nc(-c5cnn(C)c5)ccc4[nH]3)nc21 (centres unmarked) [Compound 85, 2-[8-(4-fluoro-2-methylphenyl)-5,6,7,8-tetrahydroimidazo[1,2-a]pyridin-2-yl]-5-(1-methyl-1H-pyrazol-4-yl)-1H-pyrrolo[3,2-b]pyridine] | 9120 nM |  |  | > 10 µM
Cc1cc(F)ccc1C1CCCn2cc(-c3cc4nc(-c5cnn(C)c5)ccc4[nH]3)nc21 (centres unmarked) [Compound 86, 2-[8-(4-fluoro-2-methylphenyl)-5,6,7,8-tetrahydroimidazo[1,2-a]pyridin-2-yl]-5-(1-methyl-1H-pyrazol-4-yl)-1H-pyrrolo[3,2-b]pyridine] | 112 nM | > 10 µM |  | 
COCc1ccccc1C1CCCn2nc(-c3cc4c(OC)c(C#N)ccc4[nH]3)nc21 (centres unmarked) [Compound 89, 4-methoxy-2-[5,6,7,8-tetrahydro-8-[2-(methoxymethyl)phenyl][1,2,4]triazolo[1,5-a]pyridin-2-yl]-1H-indole-5-carbonitrile] | 56 nM |  |  | > 10 µM
COCc1ccccc1C1CCCn2nc(-c3cc4c(OC)c(C#N)ccc4[nH]3)nc21 (centres unmarked) [Compound 90, 4-methoxy-2-[5,6,7,8-tetrahydro-8-[2-(methoxymethyl)phenyl][1,2,4]triazolo[1,5-a]pyridin-2-yl]-1H-indole-5-carbonitrile] | 40 nM | > 10 µM |  | 
COCc1ccccc1C1CCCn2nc(-c3cc4c(OC)c(C#N)ccc4[nH]3)nc21 (centres unmarked) [Compound 91, 4-methoxy-2-[5,6,7,8-tetrahydro-8-[2-(methoxymethyl)phenyl][1,2,4]triazolo[1,5-a]pyridin-2-yl]-1H-indole-5-carbonitrile] | 1200 nM | > 10 µM |  | 
Cc1cn(-c2ccc3cc(-c4nc5n(n4)CCCC5c4ccc(F)cc4C)[nH]c3c2)cn1 (centres unmarked) [Compound 93] |  |  | 1480 nM | > 10 µM
Cc1cn(-c2ccc3[nH]c(-c4nc5n(n4)CCOC5c4ccc(F)cc4C)cc3n2)cn1 (centres unmarked) [Compound 94, 8-(4-fluoro-2-methylphenyl)-5,6-dihydro-2-[5-(4-methyl-1H-imidazol-1-yl)-1H-pyrrolo[3,2-b]pyridin-2-yl]-8H-[1,2,4]triazolo[5,1-c][1,4]oxazine] |  |  | 170 nM | 1.82 µM
CCc1cc(F)ccc1C1OCCn2nc(-c3cc4cc(C#N)ccc4[nH]3)nc21 (centres unmarked) [Compound 95, 2-[8-(2-ethyl-4-fluorophenyl)-5,6-dihydro-8H-[1,2,4]triazolo[5,1-c][1,4]oxazin-2-yl]-1H-indole-5-carbonitrile] |  |  | 355 nM | > 10 µM

Results, then the molecule that gave them:

IC50 [1, 3] | IC50 [2, 3] | IC50 [1, 4] | IC50 [2, 4] | SMILES
 |  | 44 nM | > 10 µM | Cc1cn(-c2ccc3[nH]c(-c4nc5n(n4)CCOC5c4ccc(F)c(F)c4C)cc3c2)cn1 (centres unmarked) [Compound 104, 8-(3,4-difluoro-2-methylphenyl)-5,6-dihydro-2-[5-(4-methyl-1H-imidazol-1-yl)-1H-indol-2-yl]-8H-[1,2,4]triazolo[5,1-c][1,4]oxazine]
 |  | 148 nM | > 10 µM | Cc1cc(F)ccc1C1OCCn2nc(-c3cc4cc(-c5cnn(C)c5)ccc4[nH]3)nc21 (centres unmarked) [Compound 107, 8-(4-fluoro-2-methylphenyl)-5,6-dihydro-2-[5-(1-methyl-1H-pyrazol-4-yl)-1H-indol-2-yl]-8H-[1,2,4]triazolo[5,1-c][1,4]oxazine]
 |  | 40 nM | > 10 µM | Cc1cc(-c2ccc3[nH]c(-c4nc5n(n4)CCOC5c4ccc(F)cc4C)cc3c2)ccn1 (centres unmarked) [Compound 108, 8-(4-fluoro-2-methylphenyl)-5,6-dihydro-2-[5-(2-methyl-4-pyridinyl)-1H-indol-2-yl]-8H-[1,2,4]triazolo[5,1-c][1,4]oxazine]
 |  | 55 nM | > 10 µM | COc1c(C#N)ccc2[nH]c(-c3cn4c(n3)C(c3c(F)cccc3Cl)OCC4)cc12 (centres unmarked) [Compound 119, 2-[8-(2-chloro-6-fluorophenyl)-5,6-dihydro-8H-imidazo[2,1-c][1,4]oxazin-2-yl]-4-methoxy-1H-indole-5-carbonitrile]
123 nM |  |  | > 10 µM | COCc1ccccc1C1OCCn2cc(-c3cc4c(OC)c(C#N)ccc4[nH]3)nc21 (centres unmarked) [Compound 120, 2-[5,6-dihydro-8-[2-(methoxymethyl)phenyl]-8H-imidazo[2,1-c][1,4]oxazin-2-yl]-4-methoxy-1H-indole-5-carbonitrile]
 |  | 110 nM | > 10 µM | COc1c(C#N)ccc2[nH]c(-c3nc4n(n3)CCOC4c3cc(C(F)(F)F)ccc3F)cc12 (centres unmarked) [Compound 121, 2-[8-[2-fluoro-5-(trifluoromethyl)phenyl]-5,6-dihydro-8H-[1,2,4]triazolo[5,1-c][1,4]oxazin-2-yl]-4-methoxy-1H-indole-5-carbonitrile]
47 nM |  |  | > 10 µM | COc1c(C#N)ccc2[nH]c(-c3cn4c(n3)C(c3c(C)cccc3F)OCC4)cc12 (centres unmarked) [Compound 124, 2-[8-(2-fluoro-6-methylphenyl)-5,6-dihydro-8H-imidazo[2,1-c][1,4]oxazin-2-yl]-4-methoxy-1H-indole-5-carbonitrile]
71 nM |  |  | > 10 µM | COc1c(C#N)ccc2[nH]c(-c3nc4n(n3)CCOC4c3c(F)cccc3C(F)(F)F)cc12 (centres unmarked) [Compound 125, 2-[8-[2-fluoro-6-(trifluoromethyl)phenyl]-5,6-dihydro-8H-[1,2,4]triazolo[5,1-c][1,4]oxazin-2-yl]-4-methoxy-1H-indole-5-carbonitrile]
55 nM |  |  | > 10 µM | COc1c(C#N)ccc2[nH]c(-c3cn4c(n3)C(c3c(F)cccc3C(F)(F)F)OCC4)cc12 (centres unmarked) [Compound 126, 2-[8-[2-fluoro-6-(trifluoromethyl)phenyl]-5,6-dihydro-8H-imidazo[2,1-c][1,4]oxazin-2-yl]-4-methoxy-1H-indole-5-carbonitrile]
33 nM |  |  | > 10 µM | COc1c(C#N)ccc2[nH]c(-c3nc4n(n3)CCOC4c3cccc(F)c3C)cc12 (centres unmarked) [Compound 127, 2-[8-(3-fluoro-2-methylphenyl)-5,6-dihydro-8H-[1,2,4]triazolo[5,1-c][1,4]oxazin-2-yl]-4-methoxy-1H-indole-5-carbonitrile]
60 nM |  |  | > 10 µM | COc1c(C#N)ccc2[nH]c(-c3cn4c(n3)C(c3cc(C(F)(F)F)ccc3F)OCC4)cc12 (centres unmarked) [Compound 128, 2-[8-[2-fluoro-5-(trifluoromethyl)phenyl]-5,6-dihydro-8H-imidazo[2,1-c][1,4]oxazin-2-yl]-4-methoxy-1H-indole-5-carbonitrile]
46 nM |  |  | > 10 µM | COc1c(C#N)ccc2[nH]c(-c3nc4n(n3)CCOC4c3c(C)cccc3F)cc12 (centres unmarked) [Compound 129, 2-[8-(2-fluoro-6-methylphenyl)-5,6-dihydro-8H-[1,2,4]triazolo[5,1-c][1,4]oxazin-2-yl]-4-methoxy-1H-indole-5-carbonitrile]
79 nM |  |  | > 10 µM | COc1c(C#N)ccc2[nH]c(-c3nc4n(n3)CCOC4c3ccccc3Cl)cc12 (centres unmarked) [Compound 130, 2-[8-(2-chlorophenyl)-5,6-dihydro-8H-[1,2,4]triazolo[5,1-c][1,4]oxazin-2-yl]-4-methoxy-1H-indole-5-carbonitrile]
